Patent publication US20030158403A1, “Nuclease resistant chimeric oligonucleotides” (ISIS Pharmaceuticals, Inc., priority 2001, published 2003)
In the oligonucleotide strings, read from the 5' end, every base follows the letter of its sugar. An asterisk marks phosphorothioate; unmarked linkages are phosphodiester. Other units and linkages are bracketed, terminal groups are in braces. A string of capitals states the bases alone. [L-DNA] = L-2'-deoxythymidine (L-thymidine); d = 2'-deoxy (DNA)

Legend:
[1] = tested on: Target RNA; test: Tm values of L-thymidine modified oligonucleotides against RNA; type: binding
[2] = In vivo nuclease stability of L/D-oligonucleotide chimera, IV bolus, organs analyzed by CGE; settings: 24 h after IV bolus, BalbC mouse
Procedure: Here we report the in vivo nuclease stability of L/D-oligonucleotide chimera in mouse. We synthesized the phosphoramidite and CPG derived from L-thymidine, which was synthesized from a novel route [Jung, E. M.; Xu, Y. Tetrahedron Lett. 1997, 24, 4199-4202]. A 20 mer phosphorothioate oligonucleotide ISIS-120745 (antisense to mouse ICAM-1) was capped with L-2′-deoxy thymidine at 3′and 5′-positions. The oligonucleotide was then administered IV bolus into BalbC mouse. After 24 h. mouse was sacrificed and the oligonucleotide was isolated from different organs. Percentage of full-length oligonucleotide present in different organs were analyzed by CGE.

Substance | Tm, Target RNA [1] | degradation in organs [2] | intact full-length oligonucleotide isolated from all the major organs [2] | ΔTm ([1]; relative to the unmodified parent oligonucleotide)
ISIS 5132: 5′ TCCCGCTGTGATGCATT 3′ (SEQ ID NO: 6), all P = S; unmodified counterpart of 121785 (dT*dC*dC*dC*dG*dC*dT*dG*dT*dG*dA*dT*dG*dC*dA*dT*dT) | 60.6 °C |  |  | 
ISIS 8651: TGCATCCCCCAGGCCACCAT (SEQ ID NO: 4), all P = S; unmodified counterpart of 120745 (dT*dG*dC*dA*dT*dC*dC*dC*dC*dC*dA*dG*dG*dC*dC*dA*dC*dC*dA*dT) | 68.7 °C | degraded completely |  | 
ISIS 120745: 5′ T*GC ATC CCC CAG GCC ACC AT*3′; T* = L-Thymidine, all P = S; antisense to mouse ICAM-1 (antisense TGCATCCCCCAGGCCACCAT; sugars from the 5' end [L-DNA]1 d18 [L-DNA]1, all phosphorothioate, methylation of C not given here) | 66.94 °C |  | > 90% | −1.76 °C
